These results are taken from article PMC7539012, “Hyperphosphorylated tau aggregation and cytotoxicity modulators screen identified prescription drugs linked to Alzheimer's disease and cognitive functions” (Scientific Reports, 2020).

Structures can show the parent of a compound that is named as a salt. Where two headings read alike, the source gives them in different places.

For the assay, the system named is T1, 1N4R p-tau.
T1 construct: made in house; host or cells: E. coli (PIMAX system)
The assay can be described thus: p-tau aggregation modulator screen of 1280-compound library (ThS fluorescence net change over 16 h).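 Further: 30 µM compound with 6 µM p-tau over 16 h.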 It is filed as biochemical.

Setting [1] is: p-tau aggregation modulator screen of 1280-compound library, ThS fluorescence net change.
The mark [2] stands for this setting: 1280-compound library screen, ThS fluorescence net change over 16 h.
The mark [3] stands for this setting: p-tau aggregation modulator screen of the compound library, ThS fluorescence net change.
[4] abbreviates: p-tau aggregation modulator screen of 1280-compound library, […].

As to `C[C@H]1O[C@@H](O[C@H]2[C@@H](O)C[C@H](O[C@H]3[C@@H](O)C[C@H](O[C@H]4CC[C@@]5(C)[C@H](CC[C@@H]6[C@@H]5C[C@@H](O)[C@]5(C)[C@@H](C7=CC(=O)OC7)CC[C@]65O)C4)O[C@@H]3C)O[C@@H]2C)C[C@H](O)[C@@H]1O` [Digoxin], under “1280-compound library screen, […]”, the ThS net change came out at 404. Under setting [1], `COc1ccc2c(c1)N(C[C@H](C)CN(C)C)c1ccccc1S2.O=C(O)/C=C\C(=O)O` [Methotrimeprazine maleat salt] gave a ThS net change of 355. With `CC[N+](C)(C)c1cccc(O)c1` [Edrophonium chloride], under setting [2], the ThS net change is 389.

With `C[C@]12CC[C@@H](O)C[C@@H]1CC[C@@H]1[C@@H]2CC[C@]2(C)C(=O)CC[C@@H]12` [Androsterone], the ThS net change is on record as 449. In the case of `Cn1c(=O)c2[nH]cnc2n(C)c1=O` [Theophylline monohydrate], the ThS net change under setting [2] came to 398. Under setting [2], `CCCC(CCC)C(=O)O` [Valproic acid] came in with a ThS net change of 403. In turn, `Cc1noc(NS(=O)(=O)c2ccc(N)cc2)c1C` [Sulfisoxazole] showed a ThS net change under setting [2] of 404.

As to `CN(C)CCCN1c2ccccc2CCc2ccc(Cl)cc21` [Clomipramine hydrochloride], the ThS net change came to 307.

As to `Cc1c(C)c2c(c(C)c1O)CCC(C)(C(=O)O)O2` (centres unmarked) [Trolox], the ThS net change under setting [3] is on record as 413. Consider `CCC(C)(CN(C)C)OC(=O)c1ccccc1.Cl` (centres unmarked) [Amyleine hydrochloride], for which, under setting [4], the ThS net change worked out at 365. `Cc1cc(C(=O)NNCc2ccccc2)no1` [Isocarboxazid]: the ThS net change under setting [2] amounted to 400. Molecule `C[C@H](CS)C(=O)N1CCC[C@H]1C(=O)O` [Captopril] displayed a ThS net change under setting [1] of 370. Molecule `Oc1ccc(OCc2ccccc2)cc1` [Monobenzone] returned a ThS net change under setting [2] of 382. With `C=CCC1(CC(C)C)C(=O)NC(=O)NC1=O` [Butalbital], the ThS net change under setting [4] came to 374. The molecule `COc1ccc2cc([C@@H](C)C(=O)[O-])ccc2c1.[Na+]` [(R) -Naproxen sodium salt] came in with a ThS net change of 376.

Molecule `CC1(C)S[C@@H]2[C@H](NC(=O)Cc3ccccc3)C(=O)N2[C@H]1C(=O)O` [Benzylpenicillin sodium] yielded a ThS net change under setting [2] of 398.

For `CCCCC(CC)CN1CN(CC(CC)CCCC)CC(C)(N)C1` (centres unmarked) [Hexetidine], the ThS net change under setting [1] came out at 353. With `O=c1[nH]cc(F)c(=O)[nH]1` [5-fluorouracil], the ThS net change under setting [3] is on record as 471. The molecule `CC(C)OC(=O)CCC/C=C\C[C@@H]1[C@@H](CC[C@@H](O)CCc2ccccc2)[C@H](O)C[C@@H]1O` [Latanoprost] registered a ThS net change under setting [3] of 519. Under setting [2], `O=C1CCc2cc(OCCCCc3nnnn3C3CCCCC3)ccc2N1` [Cilostazol] showed a ThS net change of 397. `CC(C)[C@H]1CC[C@H](C(=O)N[C@H](Cc2ccccc2)C(=O)O)CC1` [Nateglinide]: the ThS net change under setting [3] was determined as 413. For the molecule `CC(CNC1CCCCC1)OC(=O)c1ccccc1` (centres unmarked) [Hexylcaine hydrochloride], the ThS net change under setting [2] is on record as 393. Under “library screen, ThS fluorescence net change over 16 h with p-tau”, `O=c1[nH]cnc2c1ncn2[C@H]1CC[C@@H](CO)O1` [Didanosine] displayed a ThS net change of 321. `CCC1(C)CC(=O)NC1=O` (centres unmarked) [Ethosuximide] had a ThS net change under setting [3] of 433. For the molecule `COc1cccc2c1C(=O)c1c(O)c3c(c(O)c1C2=O)C[C@@](O)(C(=O)CO)C[C@@H]3O[C@H]1C[C@H](N)[C@H](O)[C@H](C)O1` [Doxorubicin hydrochloride], the ThS net change came to 249.

`COc1ccc2[nH]c([S+]([O-])Cc3ncc(C)c(OC)c3C)nc2n1` (centres unmarked) [Tenatoprazole] registered a ThS net change under setting [1] of 371.

Take `O=c1[nH]c(=O)n([C@H]2C[C@H](O)[C@@H](CO)O2)cc1I` [Idoxuridine]: the ThS net change under setting [1] came out at 359. `CCn1nc(C(=O)O)c(=O)c2cc3c(cc21)OCO3` [Cinoxacin] came in with a ThS net change under setting [3] of 431. As to `O=C(O)c1cn(C2CC2)c2cc(N3CCNCC3)c(F)cc2c1=O` [Ciprofloxacin hydrochloride monohydrate], the ThS net change is 361.
